Test results taken from ChEMBL document CHEMBL2074188, “Effects of the flavonoids biochanin A, morin, phloretin, and silymarin on P-glycoprotein-mediated transport” (J Pharmacol Exp Ther, 2003).

Assays:
Assay type in all cases: functional, cell-based
[1] = molecular target: T1, ATP-dependent translocase ABCB1 (Homo sapiens, UniProt P08183); experiment: TP_TRANSPORTER: increase in Daunomycin intracellular accumulation (Daunomycin: 0.05 uM, Morin: 50 uM) in MDA435/[…] cells
[2] = molecular target: T1, ATP-dependent translocase ABCB1; experiment: TP_TRANSPORTER: cell accumulation of daunomycin in MDA435/LCC6MDR1 cells
[3] = molecular target: T1, ATP-dependent translocase ABCB1; experiment: TP_TRANSPORTER: increase in Daunomycin intracellular accumulation (Daunomycin: 0.05 uM, BiochaninA: 50 uM) in MDA435/[…] cell
[4] = molecular target: T1, ATP-dependent translocase ABCB1; experiment: TP_TRANSPORTER: increase in Daunomycin intracellular accumulation (Daunomycin: 0.05 uM, Silymarin: 50 uM) in MDA435/LCC6 MDR1 cells; conditions: mda-mb-435/lcc6 mdr1, 50 µM

T1 sequence (P08183 whole entry): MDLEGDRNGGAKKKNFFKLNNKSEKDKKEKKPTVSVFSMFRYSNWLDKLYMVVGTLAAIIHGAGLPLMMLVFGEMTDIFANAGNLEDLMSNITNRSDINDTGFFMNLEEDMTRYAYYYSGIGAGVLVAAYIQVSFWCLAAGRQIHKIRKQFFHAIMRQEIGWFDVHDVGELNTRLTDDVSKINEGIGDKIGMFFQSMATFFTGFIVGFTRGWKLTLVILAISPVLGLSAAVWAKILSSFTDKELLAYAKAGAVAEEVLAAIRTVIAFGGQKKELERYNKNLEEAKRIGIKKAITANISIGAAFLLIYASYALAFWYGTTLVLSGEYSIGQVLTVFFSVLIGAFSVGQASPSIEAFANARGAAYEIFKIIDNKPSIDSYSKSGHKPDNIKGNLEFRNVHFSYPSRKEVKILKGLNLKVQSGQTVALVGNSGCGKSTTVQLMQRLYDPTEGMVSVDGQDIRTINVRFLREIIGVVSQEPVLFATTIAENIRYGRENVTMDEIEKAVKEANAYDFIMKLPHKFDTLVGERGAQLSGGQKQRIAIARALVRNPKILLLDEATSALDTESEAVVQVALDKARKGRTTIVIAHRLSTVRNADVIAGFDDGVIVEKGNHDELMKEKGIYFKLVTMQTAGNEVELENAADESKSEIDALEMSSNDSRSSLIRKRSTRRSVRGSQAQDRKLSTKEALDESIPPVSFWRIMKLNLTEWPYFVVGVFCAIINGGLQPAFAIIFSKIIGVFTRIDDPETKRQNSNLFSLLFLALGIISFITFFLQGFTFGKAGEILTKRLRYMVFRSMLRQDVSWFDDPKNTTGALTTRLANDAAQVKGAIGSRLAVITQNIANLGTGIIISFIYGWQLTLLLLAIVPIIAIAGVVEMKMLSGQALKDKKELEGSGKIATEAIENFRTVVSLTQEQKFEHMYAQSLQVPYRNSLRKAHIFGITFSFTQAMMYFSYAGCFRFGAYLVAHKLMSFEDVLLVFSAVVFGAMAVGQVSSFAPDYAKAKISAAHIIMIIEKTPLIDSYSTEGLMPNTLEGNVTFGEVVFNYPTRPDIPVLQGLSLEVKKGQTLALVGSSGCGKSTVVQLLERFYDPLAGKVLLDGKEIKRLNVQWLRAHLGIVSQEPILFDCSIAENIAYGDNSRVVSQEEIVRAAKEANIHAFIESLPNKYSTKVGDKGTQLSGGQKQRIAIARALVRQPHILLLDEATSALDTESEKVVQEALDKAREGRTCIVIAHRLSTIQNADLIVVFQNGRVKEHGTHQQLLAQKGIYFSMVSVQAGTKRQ

Row | Compound | Activity [2] | Activity [1] | Activity [3] | Activity [4]
1 | O=c1c(O)c(-c2ccc(O)cc2O)oc2cc(O)cc(O)c12 [MORIN] | inhibitor [+] | inhibitor [(at a rough estimate) 585 % of control] |  | 
2 | COc1ccc(-c2coc3cc(O)cc(O)c3c2=O)cc1 [BIOCHANIN] | inhibitor [+] |  | inhibitor [(at a rough estimate) 645 % of control] | 

Continued, in another order:

Row | Activity [2] | Compound | Activity [1] | Activity [3] | Activity [4]
3 | inhibitor [+] | SILYMARIN |  |  | inhibitor [(at a rough estimate) 420 % of control]
4 | inhibitor [+] | O=C(CCc1ccc(O)cc1)c1c(O)cc(O)cc1O [PHLORETIN] |  |  | 
5 | inhibitor [+] | COc1ccc(CCN(C)CCCC(C#N)(c2ccc(OC)c(OC)c2)C(C)C)cc1OC (stereo not drawn) [VERAPAMIL] |  |  | 
